From US20190054060A1 (priority 2016, published 2019)

Legend:
[1] = tested on: NIRV mutants E119V, R292K and N294S; conditions: cited from earlier work
[2] = tested on: influenza A(H3N2) infection with pneumonia; conditions: human, in vivo

SMILES: CCOC(=O)C1=C[C@@H](OC(CC)CC)[C@H](NC(C)=O)[C@@H](N)C1 [Oseltamivir, ethyl (3R,4R,5S)-5-amino-4-acetamido-3-(pentan-3-yloxy)-cyclohex-1-ene-1-carboxylate]
- increase of the 50% inhibitory concentration (IC50) by NIRV mutants [1]: > 100 fold
- Admission to ICU - (%) [2]: (2.7) %
- Admission to ICU - no. [2]: 3 no.
- Complications: Nosocomial infection - (%) [2]: (5.5) %
- Complications: Nosocomial infection - no. [2]: 6 no.
- Complications: Ventilator associated pneumonia - (%) [2]: (0.9) %
- Complications: Ventilator associated pneumonia - no. [2]: 1 no.
- Length of hospitalization (median; IQR) [2]: 3
- Mortality 90-day - (%) [2]: (10) %
- Mortality 90-day - no. [2]: 11 no.
- Readmission ≤30 days from discharge - (%) [2]: (17.3) %
- Readmission ≤30 days from discharge - no. [2]: 19 no.
